In one experiment the target is T1, Cathepsin V (Homo sapiens, UniProt O60911).
T1 construct: made in house
As to the kind of experiment: Second-order rate constants of inhibition (kobs/[I]), cathepsin V. Format: biochemical. The settings on record: Figure 4D; Cy5- and BODIPY-labeled probes. The procedure:
(§1) All kinetic studies were performed using an fMax fluorescence plate reader (Molecular Devices) in kinetic mode with 96- or 384-well plates. ACC fluorescence was monitored at excitation and emission wavelengths of 355 and 460 nm, respectively. Recombinant human cysteine cathepsins L, V, B, K, and S were expressed and purified as previously described. Prior to use, all cysteine cathepsins were titrated with E64 to normalize enzymatic activity. Assays for cathepsins were conducted in 100 mM sodium acetate buffer containing 10 mM NaCl and 10 mM DTT (pH 5.5). Breast cancer cell lysates (BT-474, MCF-7, MDA-MB-231) were prepared by culturing cells to confluence in the appropriate media, replacing media with PBS, and harvesting the cells using a cell scraper (without trypsin). The cells were pelleted by centrifugation (400 × g, 5 min), resuspended in PBS, and centrifuged again under the same conditions. After removal of the supernatant, the pellet was resuspended in cathepsin assay buffer (excluding DTT) and sonicated. Lysates were then clarified by centrifugation (12,000 × g, 5 min), and the supernatants were collected and stored at −80 °C until use. All enzymatic assays, including HyCoSuL library screening and kinetic analyses of synthetic substrates, inhibitors, probes and prodrugs, were conducted at 37 °C and repeated at least three times. Mean values are reported. Kinetic data were analyzed using GraphPad Prism software (version 10.4.1).
(§2) The second-order rate constants of inhibition (k obs/[I]) were determined for human recombinant cathepsins S, B, L, and V using their respective assay buffers. All measurements were performed under pseudo-first-order kinetic conditions, as previously described. Inhibitors or ABPs were serially diluted in assay buffer and transferred to a 96-well plate. Each well was supplemented with the fluorogenic substrate Cbz-Phe-Arg-AMC at a final concentration of 25 μM and preincubated for 15 min. In parallel, enzymes were preactivated in assay buffer for 15 min at room temperature. Following preincubation, the activated enzymes were added to the wells, and fluorescence was monitored immediately for 30 min. The k obs/[I] values (M^-1S^-1) were calculated from the progress curves and averaged from at least three independent experiments. Final inhibitor (or ABP) concentrations were maintained at a minimum of 5-fold excess relative to enzyme concentrations to ensure pseudo-first-order conditions. Results were analyzed in GraphPad Prism and are reported as mean ± standard deviation.

Experiment [1] has as its target T2, Cathepsin B (Homo sapiens, UniProt P07858). As to the kind of experiment: Second-order rate constants of inhibition (kobs/[I]), cathepsin B. Format: biochemical. Further details: made in house. The settings on record: Figure 4D; Cy5- and BODIPY-labeled probes. Here is the method: as §1, §2
The target of experiment [2] is T3, Cathepsin S (Homo sapiens, UniProt P25774).
T3 construct: made in house
T3 sequence (P25774 115-331): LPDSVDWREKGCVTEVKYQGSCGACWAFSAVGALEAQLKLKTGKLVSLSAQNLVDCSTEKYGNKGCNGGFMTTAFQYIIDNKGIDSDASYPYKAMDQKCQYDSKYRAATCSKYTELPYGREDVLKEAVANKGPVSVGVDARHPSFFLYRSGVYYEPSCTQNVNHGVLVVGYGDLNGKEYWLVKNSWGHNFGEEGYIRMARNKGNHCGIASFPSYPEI
As to the kind of experiment: SDS-PAGE profiling of cathepsin labeling by OG-233 ABP. The settings on record: cathepsins 10 nM; probe 10, 100, 500 nM; 30 min. Format: biochemical. Here is the method: Subsequently, each enzyme preparation was incubated with OG-233 at final probe concentrations of 10 nM, 100 nM, and 500 nM for 30 min in a total reaction volume of 200 μL. After incubation, 100 μL of 3× SDS loading buffer containing DTT was added to each sample. The mixtures were boiled for 5 min, and 20 μL of each sample was loaded onto 4−12% Bis-Tris Plus gels (15-well format). Electrophoresis was performed at 200 V for 30 min alongside 2 μL of PageRuler Prestained Protein Ladder. Following separation, the gels were scanned directly at 700 nm (Cy5 fluorescence channel, excitation 685 nm) using a Sapphire biomolecular imager (Azure Biosystems). Band intensities corresponding to labeled cathepsins were quantified using Image Studio software.

Experiment [3] has as its target T2, Cathepsin B. As to the kind of experiment: Labeling of cathepsin B in MDA-MB-231 live cells with Cy5 probes. Further details: endogenous in cells; host or cells: MDA-MB-231. To be noted: cellular environments; probe labeling. Format: cell-based. Here is the method: (§3) 50,000 of MDA-MB-231 cells were seeded into 12-well plate and allowed to attach overnight. The next day, OG-233 and OG-234 probes (1 μM final concentration) were added to the cells and incubated for various times (from 0,5 h up to 24 h). Control cells were preincubated with cathepsin S inhibitors (JN1, JN4, JN7) at 25 μM for 2 h, and then incubated with OG-233 or OG-234 probes for 24 h. Next, cells were harvested and prepared for SDS-PAGE analysis as described in the above section. Electrophoresis was run for 25 min (4−12% Bis-Tris Plus 10-well gel, 200 V). Next, proteins were transferred onto the membrane (0.2 μm nitrocellulose membrane, 10 V, 60 min) and Ponceau S was used to verify equal loading and transfer. Membranes were then blocked with 5% BSA in TBS-T buffer for 1 h at RT. Membranes were next incubated anticathepsin S antibody (1:1,000, overnight, 4 °C), and the next day with a secondary antibody (IRDye 800CW, donkey anti-Goat) for 30 min at RT, and scanned at 680 and 800 nm using the Sapphire biomolecular imager (Azure Biosystems) to detect the Cy5 probes and cathepsin S. All images were analyzed with Image Studio software.

Experiment [4] addresses T3, Cathepsin S. As to the kind of experiment: Second-order rate constants of inhibition (kobs/[I]), cathepsin S. Format: biochemical. Here is the method:
as §1, §2

In experiment [5] the target is T4, active cathepsin S in MDA-MB-231 live cells (Homo sapiens, UniProt P25774).
T4 construct: endogenous in cells; host or cells: MDA-MB-231
T4 sequence (P25774 115-331): as above
As to the kind of experiment: Labeling of active cathepsin S in MDA-MB-231 live cells with Cy5 probes. Format: cell-based. To be noted: probe 1 μM, 0,5 to 24 h. Here is the method: as §3

In a further experiment the target is T5, Cathepsin L (Homo sapiens, UniProt P07711).
T5 construct: made in house
T5 sequence (P07711 114-333): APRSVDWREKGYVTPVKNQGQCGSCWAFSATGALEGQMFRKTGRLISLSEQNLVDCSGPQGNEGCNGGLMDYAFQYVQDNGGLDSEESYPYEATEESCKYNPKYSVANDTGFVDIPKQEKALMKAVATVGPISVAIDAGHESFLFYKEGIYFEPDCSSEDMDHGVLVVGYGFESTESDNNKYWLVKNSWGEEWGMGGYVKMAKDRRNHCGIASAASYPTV
As to the kind of experiment: Second-order rate constants of inhibition (kobs/[I]), cathepsin L. Format: biochemical. To be noted: Figure 4D; Cy5- and BODIPY-labeled probes. The procedure: as §1, §2

Results on one substance are retold here after article PMC13403234, “Engineering Cathepsin S Selective Chemical Probes and Antibody−Drug Conjugates through Substrate Profiling with Unnatural Amino Acids” (Journal of Medicinal Chemistry, 2026).

T1 sequence (O60911 114-334): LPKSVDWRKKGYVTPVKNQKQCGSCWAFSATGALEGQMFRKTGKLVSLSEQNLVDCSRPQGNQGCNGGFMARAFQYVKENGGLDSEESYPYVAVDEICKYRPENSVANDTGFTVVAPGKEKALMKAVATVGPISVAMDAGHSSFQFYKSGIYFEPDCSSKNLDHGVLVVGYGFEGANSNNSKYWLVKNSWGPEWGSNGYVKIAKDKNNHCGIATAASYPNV

Turning to “Cy5-PEG(4)-Phe(F5)-Cit-Lys(2ClZ)-Glu(Me)-AOMK [OG-233]”, the “kobs/[I] Cath V” value at Cathepsin V turned out to be 460 M⁻¹ s⁻¹. The “kobs/[I] Cath B” value at Cathepsin B [1] is recorded as 8,520 M^-1s^-1. Also, at Cathepsin S [2], the “labeling of recombinant cathepsins (fluorescent gel scanning)” value is given as “labeled recombinant cathepsin S over other cathepsins”. Also, the “off-target labeling of cathepsin B in cells” value at Cathepsin B [3] is “minor off-target labeling of cathepsin B”. The “kobs/[I] Cath S” value at Cathepsin S [4] (Figure 4D, Cy5- and BODIPY-labeled probes) is listed as 1,537,000 M^-1s^-1. Moreover, the “Selectivity S to B” value on Cathepsin S [4] (Figure 4D, calculated from kobs/[I], cathepsin S over cathepsin B) is reported as 180. Besides, on Cathepsin S [4] (Figure 4D, calculated from kobs/[I], cathepsin S over cathepsin L), the “Selectivity S to L” value was 2,700. Moreover, the “Selectivity S to V” value on Cathepsin S [4] (Figure 4D, calculated from kobs/[I], cathepsin S over cathepsin V) was 3,340. Further, the “higher potency than the unlabeled parent inhibitor” value on Cathepsin S [4] (cathepsin S kobs/[I], probe vs parent inhibitor) was “over 2 fold”. At Cathepsin S [4] (kobs/[I] based), the “selectivity for cathepsin S over cathepsin L” value was above 2000 fold and the “selectivity for cathepsin S over cathepsin V” value is given as above 500 fold. Moreover, the “detection of active cathepsin S in living cells” value in experiment [5] is “able to detect active cathepsin S as soon as upon 3 h incubation”. Moreover, the “kobs/[I] Cath L” value at Cathepsin L was 570 M⁻¹ s⁻¹.
